Assay results taken from patent US9962369B2, “Methods and compositions for transdermal delivery” (SPRAYABLE HOLDINGS, INC., priority 2014, dated 2018).
Each block holds one compound with its values, some of them ahead of it.

Legend:
[1] = Transdermal delivery of melatonin: plasma level of melatonin after applying composition to skin of a subject; conditions: control 2.0 ml of […] melatonin suspension in water, plasma level at 1, 2, 4, 8 hours
[2] = system: human skin tissue; assay: Penetration rate of AI compound in AI-helper composition through human skin in vitro, modified Franz cells; format: in vitro ADME; conditions: for Skin penetration rate of Al compound: Al compound 0.5% w/v; for Skin penetration rate of Al compound / Skin penetration rate of AI compound: 25 °C; for Skin penetration rate of lipoic acid: alpha-lipoic acid 0.5% w/v, Tyrosine isopropyl ester•HA 6% w/v, 20° C.
Experimental: Penetration rate of AI compound in the AI-helper composition through human skin were measured in vitro by modified Franz cells. A Franz cell had two chambers: the top sample chamber and the bottom receiving chamber. The human skin tissue (450-500 μm thick) that separated the top and the receiving chambers was isolated from the anterior or posterior thigh areas.

[3] = 0.375 mL of 7% helper ester + 0.8% melatonin in water on skin of the back (20 cm×20 cm)
[4] = 0.60 mL of 7% helper ester + 0.5% melatonin in water on skin of the back (20 cm×20 cm)
[5] = 2-(Diethylamino)ethyl 2-(4-isobutylphenyl)propionate hydrochloride 6% w/v, water
[6] = D-Phenylalanine isopropyl ester hydrochloride 6% w/v, water
[7] = Dialkylaminoalkyl 2-(4-isobutylphenyl)propionate: None
[8] = L-Phenylalanine isopropyl ester hydrochloride 6% w/v, water
[9] = no isoleucine ester (None), AI compound 0.5 % w/v in water
[10] = no leucine ester (None), AI compound 0.5 % w/v in water
[11] = no tryptophan ester (None), AI compound 0.5 % w/v in water
[12] = with D-isoleucine isopropyl ester hydrochloride 6 % w/v in water, AI compound 0.5 % w/v
[13] = with D-leucine isopropyl ester hydrochloride 6 % w/v in water, AI compound 0.5 % w/v
[14] = with D-tryptophan isopropyl ester hydrochloride 6 % w/v in water, AI compound 0.5 % w/v
[15] = with L-isoleucine isopropyl ester hydrochloride 6 % w/v in water, AI compound 0.5 % w/v
[16] = with L-leucine isopropyl ester hydrochloride 6 % w/v in water, AI compound 0.5 % w/v
[17] = with L-tryptophan isopropyl ester hydrochloride 6 % w/v in water, AI compound 0.5 % w/v

Compound: CCCCN(CCCC)CCOC(=O)c1ccccc1OC(C)=O [2-(Dibutylamino)ethyl 2-acetoxybenzoate]
transdermal delivery of melatonin compared to control composition (A) [1, 3]: more efficient and effective transdermal delivery of melatonin

Compound: CCN(CC)CCOC(=O)c1ccccc1OC(C)=O [2-(Diethylamino)ethyl 2-acetoxybenzoate]
transdermal delivery of melatonin compared to control composition (A) [1, 3]: more efficient and effective transdermal delivery of melatonin

Compound: CC(C)Cc1ccc(C(C)C(=O)OCCN(C)C)cc1 (centres unmarked) [2-(Dimethylamino)ethyl 2-(4-isobutylphenyl)propionate]
transdermal delivery of melatonin compared to control composition (A) [1, 4]: more efficient and effective transdermal delivery of melatonin

Compound: CCN(CC)CCCOC(=O)c1ccccc1OC(C)=O [3-(Diethylamino)propyl 2-acetoxybenzoate]
transdermal delivery of melatonin compared to control composition (A) [1, 3]: more efficient and effective transdermal delivery of melatonin

Compound: CCN(CC)CCCCOC(=O)C(C)c1ccc(CC(C)C)cc1 (centres unmarked) [4-(Diethylamino)butyl 2-(4-isobutylphenyl)propionate]
transdermal delivery of melatonin compared to control composition (A) [1, 4]: more efficient and effective transdermal delivery of melatonin

Compound: CCN(CC)CCCCCOC(=O)C(C)c1ccc(CC(C)C)cc1 (centres unmarked) [5-(Diethylamino)pentyl 2-(4-isobutylphenyl)propionate]
transdermal delivery of melatonin compared to control composition (A) [1, 4]: more efficient and effective transdermal delivery of melatonin

Compound: CC(=O)Oc1ccccc1C(=O)OCCCCCCN(C)C [6-(Dimethylamino)hexyl 2-acetoxybenzoate]
transdermal delivery of melatonin compared to control composition (A) [1, 3]: more efficient and effective transdermal delivery of melatonin

Compound: CCCCCCOC(=O)[C@@H](N)[C@@H](C)CC [Isoleucine hexyl ester]
transdermal delivery of melatonin compared to control composition (A) [1, 4]: more efficient and effective transdermal delivery of melatonin

Compound: CC[C@H](C)[C@H](N)C(=O)OC(C)C [Isoleucine isopropyl ester]
transdermal delivery of melatonin compared to control composition (A) [1, 4]: more efficient and effective transdermal delivery of melatonin

Compound: CCCCCCOC(=O)[C@@H](N)CC(C)C [Leucine hexyl ester]
transdermal delivery of melatonin compared to control composition (A) [1, 4]: more efficient and effective transdermal delivery of melatonin

Compound: CC(C)C[C@H](N)C(=O)OC(C)C [Leucine isopropyl ester]
transdermal delivery of melatonin compared to control composition (A) [1, 4]: more efficient and effective transdermal delivery of melatonin

Compound: COC(=O)[C@@H](N)CC(C)C [Leucine methyl ester]
transdermal delivery of melatonin compared to control composition (A) [1, 4]: more efficient and effective transdermal delivery of melatonin

Compound: CC(C)OC(=O)[C@@H](N)Cc1ccccc1 [Phenylalanine isopropyl ester]
transdermal delivery of melatonin compared to control composition (A) [1, 4]: more efficient and effective transdermal delivery of melatonin

Compound: CCCCCCCCOC(=O)[C@@H](N)Cc1ccccc1 [Phenylalanine octyl ester]
transdermal delivery of melatonin compared to control composition (A) [1, 4]: more efficient and effective transdermal delivery of melatonin

Compound: CCCCCCOC(=O)[C@@H]1CCCN1 [Proline hexyl ester]
transdermal delivery of melatonin compared to control composition (A) [1, 4]: more efficient and effective transdermal delivery of melatonin

Compound: CC(C)OC(=O)[C@@H]1CCCN1 [Proline isopropyl ester]
transdermal delivery of melatonin compared to control composition (A) [1, 4]: more efficient and effective transdermal delivery of melatonin

Compound: COC(=O)[C@@H]1CCCN1 [Proline methyl ester]
transdermal delivery of melatonin compared to control composition (A) [1, 4]: more efficient and effective transdermal delivery of melatonin

Skin penetration rate of Al compound [2, 5]: 10.112 ± 2.322 μg/cm^2/h | Skin penetration rate of Al compound [2, 6]: 10.378 ± 2.155 μg/cm^2/h | Skin penetration rate of Al compound [2, 7]: 0.016 ± 0.012 μg/cm^2/h | Skin penetration rate of Al compound [2, 8]: 10.301 ± 2.022 μg/cm^2/h | Skin penetration rate of Al compound ([2]; Phenylalanine ester: None): 0.017 ± 0.015 μg/cm^2/h | Skin penetration rate of AI compound [2, 9]: 0.011 ± 0.008 μg/cm^2/h | Skin penetration rate of AI compound [2, 10]: 0.008 ± 0.010 μg/cm^2/h | Skin penetration rate of AI compound [2, 11]: 0.007 ± 0.013 μg/cm^2/h | Skin penetration rate of AI compound [2, 12]: 8.526 ± 2.271 μg/cm^2/h | Skin penetration rate of AI compound [2, 13]: 8.256 ± 2.078 μg/cm^2/h | Skin penetration rate of AI compound [2, 14]: 11.136 ± 2.385 μg/cm^2/h | Skin penetration rate of AI compound [2, 15]: 8.369 ± 2.102 μg/cm^2/h | Skin penetration rate of AI compound [2, 16]: 8.378 ± 2.152 μg/cm^2/h | Skin penetration rate of AI compound [2, 17]: 11.345 ± 2.612 μg/cm^2/h
Compound: O=C1O[C@H]([C@@H](O)CO)C(O)=C1O [Vitamin C]

Skin penetration rate of lipoic acid ([2]; HA = 1/2H2SO4, water): 34.012 ± 2.685 μg/cm^2/h | Skin penetration rate of lipoic acid ([2]; HA = 1/3H3PO4, water): 33.25 ± 2.762 μg/cm^2/h | Skin penetration rate of lipoic acid ([2]; HA = 2/3H3PO4, water): 34.124 ± 2.912 μg/cm^2/h | Skin penetration rate of lipoic acid ([2]; HA = Acetic acid, water): 33.513 ± 2.319 μg/cm^2/h | Skin penetration rate of lipoic acid ([2]; HA = Benzoic acid, water): 32.913 ± 4.319 μg/cm^2/h | Skin penetration rate of lipoic acid ([2]; HA = Butyric acid, water): 33.452 ± 3.756 μg/cm^2/h | Skin penetration rate of lipoic acid ([2]; HA = Citric acid, water): 34.013 ± 2.569 μg/cm^2/h | Skin penetration rate of lipoic acid ([2]; HA = H2SO4, water): 33.567 ± 3.125 μg/cm^2/h | Skin penetration rate of lipoic acid ([2]; HA = HBr, water): 34.013 ± 3.219 μg/cm^2/h | Skin penetration rate of lipoic acid ([2]; HA = HCl, water): 33.613 ± 2.819 μg/cm^2/h | Skin penetration rate of lipoic acid ([2]; HA = HF, water): 33.613 ± 3.219 μg/cm^2/h | Skin penetration rate of lipoic acid ([2]; HA = HI, water): 33.572 ± 3.129 μg/cm^2/h | Skin penetration rate of lipoic acid ([2]; HA = Lactic acid, water): 32.987 ± 4.212 μg/cm^2/h
Compound: O=C(O)CCCCC1CCSS1 (centres unmarked) [lipoic acid]

Skin penetration rate of Al compound [2, 5]: 18.347 ± 3.132 μg/cm^2/h | Skin penetration rate of Al compound [2, 6]: 20.015 ± 3.025 μg/cm^2/h | Skin penetration rate of Al compound [2, 7]: 0.021 ± 0.011 μg/cm^2/h | Skin penetration rate of Al compound [2, 8]: 20.177 ± 3.241 μg/cm^2/h | Skin penetration rate of Al compound ([2]; Phenylalanine ester: None): 0.026 ± 0.015 μg/cm^2/h | Skin penetration rate of AI compound [2, 9]: 0.015 ± 0.008 μg/cm^2/h | Skin penetration rate of AI compound [2, 10]: 0.015 ± 0.011 μg/cm^2/h | Skin penetration rate of AI compound [2, 11]: 0.018 ± 0.012 μg/cm^2/h | Skin penetration rate of AI compound [2, 12]: 16.515 ± 3.212 μg/cm^2/h | Skin penetration rate of AI compound [2, 13]: 16.315 ± 3.172 μg/cm^2/h | Skin penetration rate of AI compound [2, 14]: 21.715 ± 3.685 μg/cm^2/h | Skin penetration rate of AI compound [2, 15]: 16.656 ± 3.021 μg/cm^2/h | Skin penetration rate of AI compound [2, 16]: 16.357 ± 3.121 μg/cm^2/h | Skin penetration rate of AI compound [2, 17]: 20.977 ± 3.741 μg/cm^2/h
Compound: Vitamin A

Skin penetration rate of Al compound [2, 5]: 8.127 ± 3.211 μg/cm^2/h | Skin penetration rate of Al compound [2, 6]: 8.156 ± 2.875 μg/cm^2/h | Skin penetration rate of Al compound [2, 7]: 0.016 ± 0.008 μg/cm^2/h | Skin penetration rate of Al compound [2, 8]: 8.236 ± 3.057 μg/cm^2/h | Skin penetration rate of Al compound ([2]; Phenylalanine ester: None): 0.012 ± 0.006 μg/cm^2/h | Skin penetration rate of AI compound [2, 9]: 0.0011 ± 0.006 μg/cm^2/h | Skin penetration rate of AI compound [2, 10]: 0.008 ± 0.009 μg/cm^2/h | Skin penetration rate of AI compound [2, 11]: 0.007 ± 0.011 μg/cm^2/h | Skin penetration rate of AI compound [2, 12]: 6.816 ± 2.372 μg/cm^2/h | Skin penetration rate of AI compound [2, 13]: 6.756 ± 2.325 μg/cm^2/h | Skin penetration rate of AI compound [2, 14]: 8.718 ± 3.125 μg/cm^2/h | Skin penetration rate of AI compound [2, 15]: 6.873 ± 3.061 μg/cm^2/h | Skin penetration rate of AI compound [2, 16]: 6.813 ± 3.111 μg/cm^2/h | Skin penetration rate of AI compound [2, 17]: 8.897 ± 3.211 μg/cm^2/h
Compound: Vitamin B12

Skin penetration rate of Al compound [2, 5]: 19.783 ± 4.025 μg/cm^2/h | Skin penetration rate of Al compound [2, 6]: 21.363 ± 2.015 μg/cm^2/h | Skin penetration rate of Al compound [2, 7]: 0.012 ± 0.006 μg/cm^2/h | Skin penetration rate of Al compound [2, 8]: 21.357 ± 3.120 μg/cm^2/h | Skin penetration rate of Al compound ([2]; Phenylalanine ester: None): 0.016 ± 0.011 μg/cm^2/h | Skin penetration rate of AI compound [2, 9]: 0.016 ± 0.009 μg/cm^2/h | Skin penetration rate of AI compound [2, 10]: 0.012 ± 0.007 μg/cm^2/h | Skin penetration rate of AI compound [2, 11]: 0.008 ± 0.008 μg/cm^2/h | Skin penetration rate of AI compound [2, 12]: 19.321 ± 3.012 μg/cm^2/h | Skin penetration rate of AI compound [2, 13]: 19.723 ± 3.046 μg/cm^2/h | Skin penetration rate of AI compound [2, 14]: 22.783 ± 3.145 μg/cm^2/h | Skin penetration rate of AI compound [2, 15]: 19.412 ± 3.076 μg/cm^2/h | Skin penetration rate of AI compound [2, 16]: 19.611 ± 3.126 μg/cm^2/h | Skin penetration rate of AI compound [2, 17]: 23.657 ± 4.120 μg/cm^2/h
Compound: Vitamin E
